# Test system: HCC1599
# Assay: normalised response (% of control), CellTiter-Glo; higher = more viable cells (100 = DMSO, 0 = benzethonium chloride kill control)
# Details: incubation time: 72 h
# Procedure: (§1)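 DSRT, 72 h incubation, CellTox Green / CellTiter-Glo readout. Signal is normalised to DMSO and benzethonium chloride controls. Value is the normalised response at dose 3.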
row,Compound,normalised response [%]
1,Cc1c(CN2CCN(C(=O)[C@H](C)O)CC2)sc2c(N3CCOCC3)nc(-c3cnc(N)nc3)nc12 [GDC-0980] (100 nM),98.3
2,Cc1cccc(-c2nn3c(c2-c2ccnc4ccc(C(N)=O)cc24)CCC3)n1 [Galunisertib] (10 nM),102
3,O=C1c2c(O)ccc(O)c2C(=O)c2c(NCCNCCO)ccc(NCCNCCO)c21 [Mitoxantrone] (10 nM),97.2
4,COc1nc(N)nc2c1ncn2[C@@H]1O[C@H](CO)[C@@H](O)[C@@H]1O [Nelarabine] (100 nM),103
5,O=C(CCBr)N1CCN(C(=O)CCBr)CC1 [Pipobroman] (100 nM),115
6,CC(C)N(CCCNC(=O)Nc1ccc(C(C)(C)C)cc1)C[C@H]1O[C@@H](n2cc(Br)c3c(N)ncnc32)[C@H](O)[C@@H]1O [SGC0946] (100 nM),93.7

# Test system: MDA-MB-453
# Assay: as above
# Details: incubation time: 72 h
# Procedure: as §1
row,Compound,normalised response [%]
1,Cc1c(Cn2c(C)nc3c(C(=O)O)cc(N4CCOCC4)cc32)cccc1C(F)(F)F (100 nM),91.3
2,CCCCC/C=C/C=C1/C(=O)C=C[C@@H]1C/C=C\CCCC(=O)O [15D-PGJ2] (8 nM),100
3,CC(=O)OC[C@H]1O[C@@H]([S-])[C@H](OC(C)=O)[C@@H](OC(C)=O)[C@@H]1OC(C)=O.CCP(CC)CC.[Au+] [Auranofin] (25 nM),104
4,Cc1c(CN2CCN(C(=O)[C@H](C)O)CC2)sc2c(N3CCOCC3)nc(-c3cnc(N)nc3)nc12 [GDC-0980] (100 nM),75.8
5,Cc1cccc(-c2nn3c(c2-c2ccnc4ccc(C(N)=O)cc24)CCC3)n1 [Galunisertib] (10 nM),110
6,O=C1c2c(O)ccc(O)c2C(=O)c2c(NCCNCCO)ccc(NCCNCCO)c21 [Mitoxantrone] (10 nM),99.3
7,COc1nc(N)nc2c1ncn2[C@@H]1O[C@H](CO)[C@@H](O)[C@@H]1O [Nelarabine] (100 nM),87.2
8,O=C(CCBr)N1CCN(C(=O)CCBr)CC1 [Pipobroman] (100 nM),93.2
9,CC(C)N(CCCNC(=O)Nc1ccc(C(C)(C)C)cc1)C[C@H]1O[C@@H](n2cc(Br)c3c(N)ncnc32)[C@H](O)[C@@H]1O [SGC0946] (100 nM),91

# Test system: MFM-223
# Assay: normalised response (% of control), CellTox Green; higher = less cell death (100 = DMSO, 0 = benzethonium chloride kill control)
# Details: incubation time: 72 h
# How it was run: (§2)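 The table gives the normalised signal for a single concentration in each entry. Breast cancer cell lines were seeded (20 µl suspension) into 384-well plates holding compound at 5 concentrations in 10-fold steps over a compound-specific 10,000-fold range and incubated 72 h, then read for CellTox Green fluorescence (485/520 nm) and CellTiter-Glo luminescence. Normalisation on each plate used 0.1 % DMSO (100) and a positive kill control (0).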
row,Compound,normalised response [%]
1,Cc1c(Cn2c(C)nc3c(C(=O)O)cc(N4CCOCC4)cc32)cccc1C(F)(F)F (100 nM),107
2,CCCCC/C=C/C=C1/C(=O)C=C[C@@H]1C/C=C\CCCC(=O)O [15D-PGJ2] (8 nM),100
3,CC(=O)OC[C@H]1O[C@@H]([S-])[C@H](OC(C)=O)[C@@H](OC(C)=O)[C@@H]1OC(C)=O.CCP(CC)CC.[Au+] [Auranofin] (25 nM),102
4,Cc1c(CN2CCN(C(=O)[C@H](C)O)CC2)sc2c(N3CCOCC3)nc(-c3cnc(N)nc3)nc12 [GDC-0980] (100 nM),105
5,Cc1cccc(-c2nn3c(c2-c2ccnc4ccc(C(N)=O)cc24)CCC3)n1 [Galunisertib] (10 nM),107
6,O=C1c2c(O)ccc(O)c2C(=O)c2c(NCCNCCO)ccc(NCCNCCO)c21 [Mitoxantrone] (10 nM),97.3
7,COc1nc(N)nc2c1ncn2[C@@H]1O[C@H](CO)[C@@H](O)[C@@H]1O [Nelarabine] (100 nM),100
8,O=C(CCBr)N1CCN(C(=O)CCBr)CC1 [Pipobroman] (100 nM),103
9,CC(C)N(CCCNC(=O)Nc1ccc(C(C)(C)C)cc1)C[C@H]1O[C@@H](n2cc(Br)c3c(N)ncnc32)[C@H](O)[C@@H]1O [SGC0946] (100 nM),97.4

# Test system: MDA-MB-436
# Assay: as above
# Details: incubation time: 72 h
# How it was run: as §2
row,Compound,normalised response [%]
1,Cc1c(Cn2c(C)nc3c(C(=O)O)cc(N4CCOCC4)cc32)cccc1C(F)(F)F (100 nM),108
2,CCCCC/C=C/C=C1/C(=O)C=C[C@@H]1C/C=C\CCCC(=O)O [15D-PGJ2] (8 nM),103
3,Cc1c(CN2CCN(C(=O)[C@H](C)O)CC2)sc2c(N3CCOCC3)nc(-c3cnc(N)nc3)nc12 [GDC-0980] (100 nM),108
4,Cc1cccc(-c2nn3c(c2-c2ccnc4ccc(C(N)=O)cc24)CCC3)n1 [Galunisertib] (10 nM),104
5,O=C1c2c(O)ccc(O)c2C(=O)c2c(NCCNCCO)ccc(NCCNCCO)c21 [Mitoxantrone] (10 nM),93.1
6,COc1nc(N)nc2c1ncn2[C@@H]1O[C@H](CO)[C@@H](O)[C@@H]1O [Nelarabine] (100 nM),90.5
7,O=C(CCBr)N1CCN(C(=O)CCBr)CC1 [Pipobroman] (100 nM),101
8,CC(C)N(CCCNC(=O)Nc1ccc(C(C)(C)C)cc1)C[C@H]1O[C@@H](n2cc(Br)c3c(N)ncnc32)[C@H](O)[C@@H]1O [SGC0946] (100 nM),95.2

# Test system: CAL-148
# Assay: as above
# Details: incubation time: 72 h
# How it was run: as §2
row,Compound,normalised response [%]
1,Cc1c(Cn2c(C)nc3c(C(=O)O)cc(N4CCOCC4)cc32)cccc1C(F)(F)F (100 nM),105
2,CCCCC/C=C/C=C1/C(=O)C=C[C@@H]1C/C=C\CCCC(=O)O [15D-PGJ2] (8 nM),88.1
3,CC(=O)OC[C@H]1O[C@@H]([S-])[C@H](OC(C)=O)[C@@H](OC(C)=O)[C@@H]1OC(C)=O.CCP(CC)CC.[Au+] [Auranofin] (25 nM),108
4,Cc1cccc(-c2nn3c(c2-c2ccnc4ccc(C(N)=O)cc24)CCC3)n1 [Galunisertib] (10 nM),106
5,COc1nc(N)nc2c1ncn2[C@@H]1O[C@H](CO)[C@@H](O)[C@@H]1O [Nelarabine] (100 nM),104
6,O=C(CCBr)N1CCN(C(=O)CCBr)CC1 [Pipobroman] (100 nM),105
7,CC(C)N(CCCNC(=O)Nc1ccc(C(C)(C)C)cc1)C[C@H]1O[C@@H](n2cc(Br)c3c(N)ncnc32)[C@H](O)[C@@H]1O [SGC0946] (100 nM),100

# — the supplement of paper PMC4862054
